# Test results reported in patent publication EP1257261B1, “ANTIVIRAL PHARMACEUTICAL COMPOSITIONS CONTAINING IRON CHELATORS” (Faculteit Geneeskunde Universiteit Utrecht, priority 1999, dated 2001).
# Where two headings read alike, the source gives them in different places.
# Legend:
# MDM = assay: Cytotoxicity in MDM, MTT assay; format: cell-based, human; conditions: 5 days
# Method: (§1) Peripheral Blood Mononuclear Cell (PBMC) fractions were isolated from heparinized blood from HIV-1-, HIV-2- and hepatitis B-seronegative donors (Bloodbank, Utrecht, The Netherlands) by Ficoll-Isopaque gradient separation. Cells were washed twice and were then either subjected to counter-current centrifugal elutriation, or monocytes in the PBMC fraction were allowed to adhere to fibronectin-coated flasks before the PBL fraction was harvested. […] After PHA stimulation the PBL were cultured in medium containing 10 U/ml human recombinant IL-2 (Boehringer, Mannheim, Germany).
# (§2) Possible cytotoxicity of DF, L1 or BLM was monitored by the MTT [3-(4,5 dimethylthiazol-2-yl)-2,5-diphenyltetrazolium bromide] (Sigma) assay.
# (§3) For the HIV-1 replication measurements cells were infected for 2 hours with HIV-1Ba-L at an MOI of 0.001; the cells were subsequently washed 2 times and incubated with different compound concentrations. After 5 days supernatant was harvested for p24 ELISA; Virus replication was expressed as % p24 reduction after compound incubations, compared to p24 measured from control HIV-infected cells incubated in the absence of compounds (set at 100% p24). Cytotoxicity was measured by the MTT test and is represented as % viable cells after 5 days compound incubations, compared to viable cells from control HIV-infected cells incubated in the absence of compounds (set at 100% viable cells). Results are the average of 3 experiments in duplicate (statistical analysis using repeated ANOVA and student Newman-Keuls test, *p<0.05).
# HIV-1Ba-L [1] = assay: HIV-1 replication in MDM, p24 ELISA of culture supernatant; format: cell-based; conditions: 5 days
# From the text: (§4) Peripheral Blood Mononuclear Cell (PBMC) fractions were isolated from heparinized blood from HIV-1-, HIV-2- and hepatitis B-seronegative donors (Bloodbank, Utrecht, The Netherlands) by Ficoll-Isopaque gradient separation. Cells were washed twice and were then either subjected to counter-current centrifugal elutriation, or monocytes in the PBMC fraction were allowed to adhere to fibronectin-coated flasks before the PBL fraction was harvested. Monocytes were of >95% purity by criteria of cell morphology on May-Grunwald-Giemsa-stained cytosmears and by non-specific esterase staining using (α-naphthylacetate (Sigma Chemical Co., St. Louis, MO) and PBL >85% purity by May-Grunwald-Giemsa-staining. Viability of both cell types was >95% at the point of experiment initiation as determined by trypan-blue exclusion. Isolated monocytes were cultured in suspension at a concentration of 2 x 10^6 cells/ml in teflon flasks minimizing adherence (Nalgene, Rochester, NY) and allowed to differentiate for 7 days. MDM medium consisted of Dulbecco's modified Eagle's medium supplemented with 10% heat-inactivated human AB serum, negative for anti-HIV antibodies (Bloodbank Utrecht, NL), 10 µg/ml gentamycin (Life Technologies Ltd, Paisley, Scotland), 5 µg/ml ciprofloxacin (Beyer, Leverkusen, Germany), 0.6 mg/ml L-glutamine (Sigma) and 3.4 g/L bicarbonate (Merck, Darmstadt, Germany). Isolated PBL was stimulated to proliferate for 3 days with 4 µg/ml phytohemagglutinin (PHA; Sigma) in RPMI-1640 (Life Technologies Ltd.) medium supplemented with 10% heat inactivated fetal calf serum (Life Technologies Ltd.) and 10 µg/ml gentamycin. After PHA stimulation the PBL were cultured in medium containing 10 U/ml human recombinant IL-2 (Boehringer, Mannheim, Germany). All incubations were carried out in flat-bottomed 96-well plates at 37 °C, 5% CO2 and 95% air.
# (§5) Cells were infected for 2 hours with HIV-1Ba-L. Macrophages were infected with a multiplicity of infection (MOI) of 0.005 and lymphocytes with an MOI of 0.001. The cells were then washed twice to remove excess virus and subsequently incubated with either DF (Novartis Pharma, Arnhem, The Netherlands), L1 (from Duchefa Farma B.V., Haarlem, The Netherlands) or BLM (H. Lundbeck A/S, Copenhagen, Denmark) for a period of 5 days. Virus in culture supernatant was inactivated in a final concentration of 0.05% empigen (Calbiochem-Novabiochem Co., La Jolla, CA). The presence of HIV-1 in the inactivated supernatant was monitored by checking for the p24-core antigen by enzyme-linked immunosorbent assay (ELISA).
# as §3, with “*p<0.05). 100% p24 production represents 1.2 ng p24/ml.” for “*p<0.05).”
# HIV-1Ba-L [2] = assay: HIV-1 replication in PBL, p24 ELISA of culture supernatant; format: cell-based
# From the text: as §4, §5
# as §3, with “DF” for “compound”, “days, supenatant” for “days supernatant”, “ELISA.” for “ELISA;”, “DF” for “compounds”, “cells). PBL proliferation was measured by overnight ^3H-thymidine incorporation after DF was incubated for 4 days with cells; it is represented as counts per minute (cpm) after DF incubations, compared to cpm from control cells, incubated in the absence of DF.” for “cells).”, “*p<0.05). 100% p24 production represents 19 ng p24/ml” for “*p<0.05).”
# For the HIV-I replication measurements cells were infected for 2 hours with HIV-1Ba-L at an MOI of 0.001; the cells were subsequently washed 2 times and incubated with different L1 concentrations. After 5 days, supernatant was harvested for p24 ELISA. […]
# PBL [3] = assay: Cytotoxicity in PBL, MTT assay; format: cell-based, human; conditions: 5 days incubation
# Method: as §1, §2
# (§6) Results are the average of 3 experiments in duplicate (statistical analysis using repeated ANOVA and student Newman-Keuls test, *p<0.05).
# as §6, §6
# HIV-1Ba-L [4] = assay: Drug combination studies, p24 inhibition in HIV-infected PBL, median-effect / combination index (CalcuSyn); format: cell-based; conditions: 5 days; for IC50: Human immunodeficiency virus 1, 120 h, read-out: IC50 (p24-antigen inhibition)
# Method: Three separate experiments were performed substantially as described in the section HIV infection and p24 measurements. Multiply-diluted fixed-ratio combinations of the drugs, or single drugs were added to each incubation point. The IC50 (inhibitory concentration) of each drug was calculated using the computer software program CalcuSyn. The combined-drug effect was evaluated by the median-effect principle and the isobologram method. This method involves the plotting of the dose-effect curve for each drug alone and in combination. The slope of the median-effect plot and the x intercept of the plot were then used for the computerized calculation of a combination index (CI). The CI values were based on the classic isobologram equation and CI values of <1, 1 and >1 indicate synergism (greater than the expected additive effect), additive effects and antagonism (less than the expected additive effect). Fraction affected (fa) was calculated for every drug combination and for each drug alone after p24 measurements in infected PBL incubated for 5 days with the examined compounds (see HIV infection and p24 measurements).
# CT < 1, = 1 and > 1 represent synergistic, additive and antagonistic effects, respectively. The subdivision within the synergistic area (CI >0.7, 0.3-0.7 and <0.3 implying moderate synergism, synergism, and strong synergism respectively) is according to Chou and Talalay. The parameters are obtained using the median effect equation of Chou and Talalay and the CalcuSync computer software programme as described in materials and methods.
# Peripheral blood lymphocytes (PBL) were infected for 2 hours with HIV-1Ba-L at an MOI of 0.001. The cells were subsequently washed 2 times to remove an excess in virus and subsequently incubated for 5 days with only BLM, only ritonavir or various combinations of the two substances. Virus in the supernatant of the cell cultures was inactivated in a final concentration of 0.05% empigen and the presence of HIV-1 in the inactivated supernatant was measured by determining the p24 antigen with enzyme-linked immunosorbent assay (ELISA). […]
# PBL [5] = assay: Lymphocyte proliferation, overnight 3H-thymidine incorporation; format: cell-based, human; conditions: concentrations studied, 4 days incubation then overnight 3H-TdR
# From the text: as §4, with “Isolated PBL was stimulated to proliferate for 3 days with 4 µg/ml phytohemagglutinin (PHA; Sigma) in RPMI-1640 (Life Technologies Ltd.) medium supplemented with 10% heat inactivated fetal calf serum (Life Technologies Ltd.) and 10 µg/ml gentamycin. After PHA stimulation the PBL were cultured in medium containing 10 U/ml human recombinant IL-2 (Boehringer, Mannheim, Germany). All incubations were carried out in flat-bottomed 96-well plates at 37 °C, 5% CO2 and 95% air.” left out
# [6] = single drug within the DF-ddI combination experiment
# [7] = single drug within the BLM-ritonavir combination experiment
# [8] = 300 ng BLM/ml, control 1.2 ng p24/ml
molecule,measurement,setting,value
"CC(=O)N(O)CCCCCNC(=O)CCC(=O)N(O)CCCCCNC(=O)CCC(=O)N(O)CCCCCN [DF, deferoxamine]","cytotoxicity (cell viability, MTT)",MDM; concentrations around 100 µM,onset of cytotoxicity
same,inhibition at 100 µM,"HIV-1Ba-L [1]; Human immunodeficiency virus 1, 120 h, concentrations around 100 µM, control 1.2 ng p24/ml, read-out: reduction of viral replication (p24)",≤ 50%
same,p24 level in culture supernatant,"HIV-1Ba-L [1]; concentrations around 100 µM, control 1.2 ng p24/ml",0.6 ng p24/ml
same,p24 level in culture supernatant,"HIV-1Ba-L [2]; 3 µM, 5 days, control 19 ng p24/ml",11 ng p24/ml
same,p24 level in culture supernatant,"HIV-1Ba-L [2]; 30 µM, 5 days, n=3, control 19 ng p24/ml",1.9 ng p24/ml
same,inhibition at 3 µM,"HIV-1Ba-L [2]; Human immunodeficiency virus 1, 120 h, 3 µM, 5 days incubation, n=3, p<0.05, control 19 ng p24/ml, read-out: reduction in viral replication (p24)",40%
same,inhibition at 30 µM,"HIV-1Ba-L [2]; Human immunodeficiency virus 1, 120 h, 30 µM, 5 days, n=3, control 19 ng p24/ml, read-out: reduction of p24 levels",> 90%
same,"cytotoxicity (cell viability, MTT)",PBL [3]; 100 µM,cytotoxic
same,IC50,HIV-1Ba-L [4]; [6],8.5 µM
"Cc1c(O)c(=O)ccn1C [L1, deferiprone]","cytotoxicity (cell viability, MTT)",MDM; concentrations studied,not cytotoxic
same,up-regulation of p24 antigen production,HIV-1Ba-L [1]; 30 µM,up to two fold
same,cellular proliferation (3H-thymidine incorporation),PBL [5],decrease in proliferation
same,HIV-1 replication (p24),"HIV-1Ba-L [2]; 100 µM, 5 days",reduced to minimal levels
same,p24 antigen production,"HIV-1Ba-L [2]; lower compound concentrations (below 100 µM), 5 days",subtle increase
same,"cytotoxicity (cell viability, MTT)",PBL [3]; 100 µM,not cytotoxic
"O=c1[nH]cnc2c1ncn2[C@H]1CC[C@@H](CO)O1 [ddI, dideoxyinosine]",IC50,HIV-1Ba-L [4]; [6],3.7 µM
CC(C)c1nc(CN(C)C(=O)N[C@H](C(=O)N[C@@H](Cc2ccccc2)C[C@H](O)[C@H](Cc2ccccc2)NC(=O)OCc2cncs2)C(C)C)cs1 [ritonavir],IC50,HIV-1Ba-L [4]; [7],0.04 µM
bleomycin [BLM],"cytotoxicity (cell viability, MTT)",MDM; concentrations studied,not to affect cell viability
same,p24 level in culture supernatant,HIV-1Ba-L [1]; [8],0.6 ng p24/ml
same,reduction of p24 levels,HIV-1Ba-L [1]; [8],50%
same,cellular proliferation (3H-thymidine incorporation),PBL [5],remained intact
same,reduction of HIV-1 replication (p24),"HIV-1Ba-L [2]; 3-300 ng BLM/ml, 5 days, n=3, control 19 ng p24/ml",20-50%
same,p24 level in culture supernatant,"HIV-1Ba-L [2]; lower end of 3-300 ng BLM/ml range (20% reduction), n=3, control 19 ng p24/ml",15 ng p24/ml
same,p24 level in culture supernatant,"HIV-1Ba-L [2]; upper end of 3-300 ng BLM/ml range (50% reduction), n=3, control 19 ng p24/ml",9.5 ng p24/ml
same,"cytotoxicity (cell viability, MTT)",PBL [3]; concentrations studied,not cytotoxic
same,IC50 (p24-antigen inhibition),HIV-1Ba-L [4]; [7],1.9 µg/mL
